The test system of test [1] is TNFα production in human whole blood. Put plainly: Human Whole Blood test: inhibition of LPS-stimulated TNFα production. It is filed as cell-based. As for the experimental part:
The ability of the compounds of this invention to inhibit TNFα production was also assessed in a human whole blood assay. Human whole blood secretes TNFα when stimulated with LPS. This property of blood forms the basis of an assay which is used as a secondary test for compounds which profile as active in the PBMC test.
Heparinised (10 units/ml) human blood was obtained from volunteers. 160 μl whole blood were added to 96 well round-bottom plates (Corning 25850). Compounds were solubilised and serially diluted in RPMI 1640 medium (Gibco) supplemented with 50 units/ml penicillin, 50 μg/ml streptomycin and 2 mM glutamine, as detailed above. 20 μl of each test concentration was added to appropriate wells (triplicate cultures). 20 μl of RPMI 1640 medium supplemented with antibiotics and glutamine was added to control wells. Plates were incubated for 30 minutes at 37° C. (humidified incubator), prior to addition of 20 μl LPS (final concentration 10 μg/ml). RPMI 1640 medium was added to control wells. Six “LPS alone” and four “medium alone” controls were included on each plate. A known TNFα synthesis/secretion inhibitor was included in each test. Plates were incubated for 6 hours at 37° C. (humidified incubator). […] TNFα levels were measured by ELISA (see WO92/10190 and Current Protocols in Molecular Biology, vol 2 by Frederick M. Ausbel et al., John Wiley and Sons Inc.). […]

Test [2] concerns the target T1, p38α (Homo sapiens, UniProt Q16539).
T1 construct: c-myc (N); 6His (N); made in house; host or cells: E. coli (PET vectors)
As to the kind of experiment: In vitro enzyme assay, p38α. It is filed as biochemical. To be noted: read-out: IC50 against p38α. As for the experimental part:
The ability of compounds of the invention to inhibit the enzyme p38 kinase was assessed. Activity of test compounds against each of the p38α and p38β isoforms of the enzyme was determined. […]
Test compounds were solubilised in DMSO and 10 μl of a 1:10 diluted sample in ‘Kinase Buffer’ was added to a well in a Microtiter plate. […] The precipitated protein was phosphorylated by p38 kinase and test compounds were assessed for their ability to inhibit this phosphorylation. The plates were filtered using a Canberra Packard Unifilter and washed with 2% TCA, dried overnight and counted on a Top Count scintillation counter.
Test compounds were tested initially at a single dose and active compounds were retested to allow IC50 values to be determined.

T1 sequence (Q16539 whole entry): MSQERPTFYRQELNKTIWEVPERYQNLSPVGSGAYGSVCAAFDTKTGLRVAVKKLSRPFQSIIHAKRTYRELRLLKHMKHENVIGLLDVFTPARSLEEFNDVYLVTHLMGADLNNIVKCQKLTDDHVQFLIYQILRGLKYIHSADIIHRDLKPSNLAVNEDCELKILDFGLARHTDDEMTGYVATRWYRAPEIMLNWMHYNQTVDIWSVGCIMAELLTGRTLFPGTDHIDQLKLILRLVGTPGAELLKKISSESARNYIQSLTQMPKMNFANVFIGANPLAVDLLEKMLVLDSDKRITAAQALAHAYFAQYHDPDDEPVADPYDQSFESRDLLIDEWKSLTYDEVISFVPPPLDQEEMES

For `Cc1ccc(NC(=O)c2cc(F)cc(N3CCOCC3)c2)cc1Nc1cc(C(N)=O)nc(Cl)n1` [6-Carbamoyl-2-chloro-4-[5-(3-fluoro-5-morpholinobenzamido)-2-methylanilino]-pyrimidine], the half-maximal inhibitory concentration (IC50) is about 16 µM in test [1] and about 0.03 µM in test [2].

Source of the values: patent US6846827B1, “Pyrimidine derivatives” (AstraZeneca AB, priority 1999, dated 2005).
